Source: paper PMC10634346 (Cancer Research Communications, 2023)
Like-named read-outs stand apart in the source and are kept apart here.

How the values were obtained:
[1] = Clinical pharmacokinetics, plasma LC/MS-MS (NCT02635672); assay type: in vivo, human; details: for Cmax / half-life: human, plasma
Experimental: (§1) Fifteen patients with refractory or relapsed DH-DLBCL or other MYC+ NHL were treated with enitociclib (30 mg, 21-day cycle, once weekly x3) as a 30-minute intravenous infusion on study days 1, 8, and 15 (NCT02635672). Longitudinal gene expression levels were analyzed by RNA-seq, and enitociclib plasma concentrations were measured using LC/MS-MS. The clinical study protocol was approved by the Institutional Review Board of participating institutions and complied with the Declaration of Helsinki, current Good Clinical Practice guidelines, and local laws and regulations. Written informed consent was provided by all participants prior to the initiation of any study-specific procedure.
(§2) All pharmacokinetic parameters were calculated by noncompartmental methods as described previously ([36]) using WinNonlin v5.3 (Certara LP). Pharmacokinetic/pharmacodynamic modeling was performed using SAAM II v2.3.2 (The Epsilon Group). Pooled pharmacokinetic data from all patients [n = 15 for single dose, cycle 1 day 1 (C1D1) and n = 11 for multiple doses, cycle 1 day 15 (C1D15)] were characterized using a one-compartment model with intravenous dosing. Subsequently, the pharmacokinetic/pharmacodynamic relationship of enitociclib plasma concentrations to MCL1 and MYC mRNA change was characterized using an indirect response model ([37]) on pooled biomarker data where enitociclib concentrations inhibit the formation of MCL1 or MYC mRNA as described by the following equation: […]

SU-DHL-10 xenografts = assay: SU-DHL-10 xenograft antitumor efficacy; assay type: in vivo, C.B-17 SCID mice
Experimental: A total of 10 × 10^6 SU-DHL-10 cells were inoculated subcutaneously into 6–8 weeks old female C.B-17 SCID mice (Iffa Credo, Brussels). The mice were randomized to treatment groups at a tumor volume of 63–104 mm^3 and treated (intravenously, once weekly) with 10 mg/kg enitociclib (60% PEG400, 10% ethanol, water), 15 mg/kg enitociclib (30% PEG400, 10% ethanol, water), or corresponding vehicle treatments. Mice were around 10–12 weeks of age at the start of study. All animal experiments were performed under the national animal welfare laws of Germany and approved by the local authorities.
Statistical analyses were performed using GraphPad Prism v9 (GraphPad Software). For tumor volumes in SU-DHL-10 xenograft model, statistics were performed using unpaired t test in comparison with the corresponding vehicle treatment. The obtained P values were adjusted for all analyses. Results were considered statistically significant when P < 0.05.

[2] = Clinical pharmacokinetics, plasma LC/MS-MS (NCT02635672); assay type: in vivo, human; details: subject 3, dose lowered from 30 to 22.5 mg, not included in average
MYC mRNA in whole blood = MYC mRNA in whole blood of patients (RNA-seq, PK/PD modeling); assay type: in vivo, human; details: for maximum extent of inhibition for MYC mRNA: C1D1, 30 mg; for MYC mRNA downregulation: C1D15, third weekly 30 mg dose; for mean fold change mRNA levels of MYC: after C1D1 dose; for mean fold change mRNA levels of MYC / MYC mRNA fold change: RNA-seq; for MYC mRNA fold change: after C1D15 dose
Experimental: Total RNA was extracted from blood of patients and cell lines using RNeasy Plus Mini Kit (QIAGEN, #74136) and cDNA prepared with the Maxima First Strand cDNA Synthesis Kit for RT-PCR (Thermo Fisher Scientific, K1642) according to manufacturer's instructions. The integrity of purified total RNA was evaluated using an Agilent 2100 Bioanalyzer system and RNA 6000 Nano Kit (Agilent, #5067-1511). Differential gene expression analysis was performed (Fios Genomics) from RNA-seq data (Discovery Life Sciences). MYC and MCL1 mRNA levels were measured by qPCR in vitro and in vivo, using a Taqman qPCR system (Thermo Fisher Scientific), TaqMan Fast Universal PCR Master Mix (2X) no AmpErase (#4352042) and TaqMan probes for MYC (Hs00153408_m1) and MCL1 (Hs03043899_m1). RNA-seq data were analyzed using DESeq2 ([35]).
as §1, §2
PD is defined as MCL1 or MYC mRNA expression level as a percentage from baseline, t (h) is the time, kin (1/h) is the formation rate of MCL1 or MYC, IC50 (µg/L) is the enitociclib concentration where there is 50% inhibition of PD, kout (h^−1) is the rate constant describing the loss of PD, and n is the hill coefficient. At homeostasis, kin = kout (PD); therefore, kout was replaced by kin/(PD)initial where (PD)initial is equal to 100%. Estimates of pharmacokinetic and pharmacodynamic parameters from pharmacokinetic/pharmacodynamic modeling of pooled data are presented as the estimate followed by CV in parentheses.
RNA-seq data generated from the analysis of two cell lines treated with the three CDK9 inhibitors was analyzed to investigate the differences in gene expression levels between various posttreatment timepoints and the pretreatment samples. Quality control assessment and exploratory data analysis by principal component analysis (PCA) were done on raw counts and on normalized count data. Normalization of RNA-seq count data was done using trimmed mean of M-values normalization and transformed with voom, resulting in log2 counts per million with associated precision weights. […] Significance values (Padj) were adjusted for multiple testing, by controlling the FDR using the Benjamini–Hochberg procedure. […] RNA-seq data generated from blood samples taken from patients before and after their first dose (C1D1) or after multiple doses, before and after their third dose (C1D15) were analyzed and normalized using the same pipeline as cell lines for comparisons.

Cmax ([1]; intravenous, 22.5 mg, subject 3, dose lowered from 30 to 22.5 mg, not included in average, read-out: Multiple dose C max): 592 ng/mL | half-life ([1]; intravenous, 22.5 mg, subject 3, dose lowered from 30 to 22.5 mg, not included in average, read-out: Multiple dose t1/2 (converted)): 2.53 h | half-life ([1]; intravenous, 30 mg, patients treated with multiple doses, read-out: mean t1/2 (converted)): 5.56 h | Cmax ([1]; iv, 30 mg, patients, 30 mg i.v. once weekly, read-out: Cmax): 1750 nM | unbound Cmax ([1]; patients, 30 mg i.v. once weekly, Cmax x fu): 117 nM | Tmax ([2]; human, plasma, intravenous, 22.5 mg, read-out: Multiple dose tmax): 0.483 h | Multiple dose AUC0-t [2]: 1,670^b µg^ah/L | IC50 (MYC mRNA in whole blood; Homo sapiens, PK/PD indirect response model, pooled patient blood data, read-out: model estimated unbound IC50 for MYC mRNA): 17.4 to 22 nM
Compound: COc1cc(F)ccc1-c1cc(Nc2cc(CS(C)(=N)=O)ccn2)ncc1F (stereo not drawn) [enitociclib]
antitumor efficacy (in words) (SU-DHL-10 xenografts; 10 mg/kg i.v. once weekly): tumor growth control | treatment/control (T/C) value (SU-DHL-10 xenografts; 10 mg/kg i.v. once weekly, day 16 after treatment start, P = 0.011): 0.19 | antitumor efficacy (in words) (SU-DHL-10 xenografts; 15 mg/kg i.v. once weekly, 3-week treatment period): complete regression | treatment/control (T/C) value (SU-DHL-10 xenografts; 15 mg/kg i.v. once weekly, day 20 after treatment start, P < 0.001): 0.005 | tumor growth inhibition reaching, of control (SU-DHL-10 xenografts; SU-DHL-10 xenografts): 0.5 % of control | maximum extent of inhibition for MYC mRNA (MYC mRNA in whole blood; other MYC+ NHL (n = 5), range 69.9%–90.5%): 82.3% | maximum extent of inhibition for MYC mRNA (MYC mRNA in whole blood; patients with DH-DLBCL (n = 10), range 73.6%–94.8%): 89.6% | MYC mRNA downregulation (MYC mRNA in whole blood; DH-DLBCL (n = 9), range 96.85%–50%): 86.71% | MYC mRNA downregulation (MYC mRNA in whole blood; other MYC+ NHL (n = 3), range 53.7%–86.9%): 71.08% | mean fold change mRNA levels of MYC (MYC mRNA in whole blood; DH-DLBCL): −3.45 (SD 0.68) | MYC mRNA fold change (MYC mRNA in whole blood; DH-DLBCL): −3.38 (SD 1.07) | mean fold change mRNA levels of MYC (MYC mRNA in whole blood; other MYC+ NHL): −2.61 (SD 0.54) | MYC mRNA fold change (MYC mRNA in whole blood; other MYC+ NHL): −1.97 (SD 0.75)
